Source: publication PMC4494705 (PLoS ONE, 2015)
“Also recorded” adds a separate entry of the source. Where two headings read alike, the source gives them in different places. Values belong to the compound of their own block, whether it stands above or below them.

Tests used:
[1] = Single time point (1 h) brain concentrations after i.n. administration in rats; assay type: in vivo; conditions: rat, 30 mg/kg i.n., 1 h post dose; for concentration at 1 h: male, Wistar, other: intranasal (i.n.)
GCP-II [2] = conditions: GCP-II inhibition, cited from earlier work
[3] = non-human primates; halted development; no reference given; cited from earlier work
[4] = Pharmacokinetics of 2-PMPA after i.p. administration in rats; assay type: in vivo; conditions: rat, 30 mg/kg i.p.
Procedure: For i.p. studies 2-PMPA was administered as a single i.p. dose. All dosing solutions were prepared on the day of the experiment in 50 mM HEPES buffered saline, and pH adjusted to 7.4 before injection. At various time points following drug administration (0.16, .5, 1, 3, 5 h) post dose, animals (n = 3 per time point, except 3 h n = 2 animals) were euthanized with CO2, and blood samples were collected in heparinized microtubes by cardiac puncture and tissues (olfactory bulb, frontal cortex, and cerebellum) were dissected and immediately flash frozen (-80°C). Plasma was prepared by centrifugation immediately after collection of blood samples. All samples were stored in -80°C until bioanalysis. […]
The maximum plasma concentration (Cmax) and time to Cmax (Tmax) were the observed values. The area under the plasma concentration time curve (AUC) value was calculated to the last quantifiable sample (AUClast) by use of the log-linear trapezoidal rule. The brain to plasma partition coefficients were calculated as a ratio of their AUCs (AUC0-t,brain/AUC0-t,plasma). The elimination half-life (t1/2) was determined by dividing 0.693 by λ z.

[5] = Pharmacokinetics of 2-PMPA after i.n. administration in rats; assay type: in vivo; conditions: rat
GCP-II [6] = biological target: T1, GCP-II (Rattus norvegicus, UniProt P70627); assay: Ex vivo GCP-II enzymatic (NAAG hydrolyzing) activity in brain tissue after i.n. administration; conditions: for inhibition at 30 mg/kg: inhaled or nasal, 30 mg/kg i.n., 1 h post dose, relative to untreated control rats
T1 construct: from tissue; host or cells: rat brain (olfactory bulb, cortex, cerebellum), sonicated homogenate supernatant
T1 sequence (P70627 whole entry): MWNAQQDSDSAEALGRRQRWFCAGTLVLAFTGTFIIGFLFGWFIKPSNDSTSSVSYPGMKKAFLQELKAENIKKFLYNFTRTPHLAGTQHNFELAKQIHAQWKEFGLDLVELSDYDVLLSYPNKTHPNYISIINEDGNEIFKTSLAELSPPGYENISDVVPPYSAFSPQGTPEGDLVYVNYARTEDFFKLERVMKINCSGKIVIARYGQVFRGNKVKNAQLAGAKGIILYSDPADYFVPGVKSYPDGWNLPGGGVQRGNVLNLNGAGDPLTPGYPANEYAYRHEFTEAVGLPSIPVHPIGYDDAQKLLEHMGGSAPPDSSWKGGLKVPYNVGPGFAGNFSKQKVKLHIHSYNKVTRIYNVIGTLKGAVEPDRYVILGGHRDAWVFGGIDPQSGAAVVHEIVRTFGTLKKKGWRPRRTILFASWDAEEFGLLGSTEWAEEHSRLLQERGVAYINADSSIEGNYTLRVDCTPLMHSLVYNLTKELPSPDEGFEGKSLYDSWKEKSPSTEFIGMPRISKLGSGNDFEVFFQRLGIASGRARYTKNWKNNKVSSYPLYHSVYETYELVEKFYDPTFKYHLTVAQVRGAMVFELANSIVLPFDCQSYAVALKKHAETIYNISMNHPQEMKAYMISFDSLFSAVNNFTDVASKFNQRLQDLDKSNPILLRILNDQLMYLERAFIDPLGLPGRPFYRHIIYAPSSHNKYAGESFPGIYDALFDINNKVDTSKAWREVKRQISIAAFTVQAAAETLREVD
Procedure: One half of the brain tissues collected following i.n. administration (1h post dose) was used to determine GCP-II NAAG hydrolyzing activity. In brief, tissues were weighed and immersed in 0.5 mL of ice-cold 50 mM Tris Buffer (pH 7.7 at RT). Each tissue was sonicated for 30–60 seconds using an ultrasonic cell disrupter. After a 2 minute spin at 13,000 g, supernatants were analyzed for protein content and NAAG-hydrolyzing activity measurements were performed as previously described.

[7] = Plasma and CSF exposure after i.n. administration in non-human primate; assay type: in vivo; conditions: male cynomolgus monkey, 30 min post dose
Procedure: Total dose delivered was 100 mg.
Standard curves were generated in blank artificial CSF. […] Samples were analysed on agilent QTOF mass spectrometer by LC/MS.

[8] = following systemic administration; ref [45]; cited from earlier work
[9] = cerebellum, read-out: Mean concentration in cerebellum
[10] = frontal cortex, read-out: Mean concentration in cortex
[11] = olfactory bulb, read-out: Mean concentration in olfactory bulb
[12] = printed in Fig 1, no method or reference given in this paper, read-out: Potency (IC50)

- concentration at 1 h [1, 9]: 200 ng/g
- concentration at 1 h [1, 10]: 2030 ng/g
- concentration at 1 h [1, 11]: 2120 ng/g
SMILES: O=C(O)CC[C@H](NC(=O)N[C@@H](CS)C(=O)O)C(=O)O [DCMC, N-[N-[(S)-1,3-dicarboxypropyl]carbamoyl]-L-cysteine, reference compound]
- IC50 (GCP-II [2]; [12]): 3.1 nM

- concentration at 1 h [1, 9]: 210 ng/g
- concentration at 1 h [1, 10]: 260 ng/g
- concentration at 1 h [1, 11]: 4460 ng/g
SMILES: O=C(O)CCC(CCCS)C(=O)O (stereo not drawn) [2-MPPA, 2-(3-mercaptopropyl)pentane-dioic acid]
- IC50 (GCP-II [2]; [12]): 90 nM
- Toxicity observed in primate studies [3]: membranoproliferative glomerular nephritis; also recorded: immunological toxicities

SMILES: O=C(O)CCC(CP(=O)(O)O)C(=O)O (stereo not drawn) [2-PMPA, 2-(phosphonomethyl)-pentanedioic acid]
- Mean concentration in cerebellum [1]: 2.13 µg/g
- Mean concentration in cortex [1]: 10.3 µg/g
- Mean concentration in olfactory bulb [1]: 31.2 µg/g
- half-life ([4]; male, Wistar, ip, plasma, read-out: Elimination t1/2 (converted)): 59.4 min
- Cmax ([4]; male, Wistar, ip, plasma, read-out: Peak plasma concentration (Cmax)): 49500 ng/mL
- CL/F ([4]; male, Wistar, plasma, ip, read-out: Apparent clearance): 9.71 mL/min/kg
- AUC0-t cerebellum [4]: 0.80 µg·h/g
- AUC0-t olfactory bulb [4]: 1.15 µg·h/g
- Apparent volume of distribution [4]: 0.82 L/kg
- Cmax ([5]; male, Wistar, other: intranasal (i.n.), 30 mg/kg i.n., plasma): 24700 ng/mL
- AUC(0-t) ([5]; male, Wistar, plasma, other: intranasal (i.n.), 30 mg/kg i.n., read-out: AUC0-t plasma): 52300 ng·h/mL
- AUC0-t cerebellum ([5]; 30 mg/kg i.n.): 5.27 µg·h/g
- AUC0-t cortex ([5]; 30 mg/kg i.n.): 37.7 µg·h/g
- AUC0-t olfactory bulb ([5]; 30 mg/kg i.n.): 78.1 µg·h/g
- Brain tissue to plasma ratio (AUC0-t,brain/AUC0-t,plasma), cortex ([5]; 30 mg/kg i.n.): 0.71
- Brain tissue to plasma ratio (AUC0-t,brain/AUC0-t,plasma), olfactory bulb ([5]; 30 mg/kg i.n.): 1.49
- Inhibition of brain GCP-II enzymatic activity ex-vivo (in words) (GCP-II [6]; i.n. administration): complete inhibition
- inhibition at 30 mg/kg (GCP-II [6]; read-out: Inhibition of GCP-II activity, cerebellum): 70%
